Assay results published in patent US20080176857A1, “4-Piperazinnylthieno[2,3-d]Pyrimidine Compounds as Platelet Aggregation Inhibitors” (priority 2005, published 2008).
Where “and” joins values, the source holds several entries; their conditions need not be identical. Identical values can stand only once.

Target: P2Y12 receptor (Homo sapiens, UniProt Q9H244)
Assay: [33P]-2MeS-ADP binding to recombinant human P2Y12 membranes (Assay 3)
Set-up: expressed in transfected cells; host or cells: HEK cells
Conditions: for IC50 / Ki: HEK cell membranes expressing human P2Y12, competition with 33P 2MeS-ADP; for % Inhibition / inhibition at 1 µM / inhibition at 10 µM: at highest concentration tested
Method: 3. Human P2Y12 Recombinant Cell Membrane Binding Assay with ^33P 2MeS-ADP.
The ability of a test compound to bind to the P2Y12 receptor was evaluated in a recombinant cell membrane binding assay. In this competitive binding assay, the test compound competed against a radiolabelled agonist for binding to the P2Y12 receptor, expressed on the cell membrane. Inhibition of binding of the labeled material was measured and correlated to the amount and potency of the test compound. Data from this assay are presented in Table F. This binding assay is a modification of the procedure in Takasaki, J. et. al, Mol. Pharmacol., 2001, Vol. 60, pg. 432.
HEK cells were transfected with the pDONR201P2Y12 vector and cultured in MEM with GlutaMAX I, Earle's salts, 25 mM HEPES (Gibco # 42360-032) containing 10% dialyzed FBS (Gibco # 26400-044), 100 μM nonessential amino acids (Gibco # 11140-050), 1 mM sodium pyruvate (Gibco # 11360-070), 0.05% geneticin (Gibco #10131-027), 3 μg/mL blasticidin (Fluka brand from Sigma # 15205), and 0.5 μg/mL puromycin (Sigma # P-8833).
Confluent cells were washed once with cold DPBS (Gibco # 14190-136). Fresh DPBS was added and the cells were scraped and centrifuged at 500×g for 5 minutes at 4° C. The cell pellets were resuspended in TEE buffer (25 mM Tris, 5 mM EDTA, 5 mM EGTA) containing 1 protease inhibitor cocktail tablet (Roche # 1 873 580) per 50 mL (called TEE+Complete) and can be flash frozen at this point.
In one embodiment, frozen cell pellets were used to prepare the membranes. In that embodiment, the frozen cell pellets were thawed on ice. In another embodiment, cell pellets may be used without flash freezing before moving on to the next step.
Cell pellets were resuspended in TEE buffer+Complete and homogenized in a glass dounce for 12 strokes. The cell suspension was centrifuged at 500×g for 5 minutes at 4° C. The supernatant was saved and centrifuged at 20,000×g for 20 minutes at 4° C. This supernatant was discarded and the cell pellet resuspended in TEE buffer+Complete and homogenized in a glass dounce for 12 strokes. This suspension was centrifuged at 20,000×g for 20 minutes at 4° C. and the supernatant discarded. The pellet was resuspended in assay buffer (50 mM Tris, 100 mM NaCl, 1 mM EDTA) containing one protease inhibitor cocktail tablet per 50 mL, and can be flash frozen as 1 mL aliquots at this point.
Dry compounds were diluted as 10 mM DMSO stocks and tested in a seven-point, three-fold dilution series run in triplicate beginning at 10 μM, final concentration. A 1 mM DMSO intermediate stock was made in a dilution plate and from this the seven dilutions were made to 5× the final concentration in assay buffer containing 0.02% BSA.
The plates were incubated at room temperature for 1 hour. The reaction was stopped using a cell harvester to transfer the reaction mixture onto GF/B UniFilter plates (Perkin Elmer # 6005177), and washed three times with wash buffer (50 mM Tris), filtering between each wash. The filter plates were dried for approximately 20 minutes in an oven at 50° C. Back seals were adhered to the filter plates and 25 uL of Microscint 20 scintillation fluid (Perkin Elmer # 6013621) were added. The filter plates were sealed, shaken for 30 minutes, and counted on a Top Count. Data were analyzed using a four-parameter curve fit with a fixed minimum and maximum experimentally defined as the average positive and negative controls on each plate, and with a hill slope equal to one.
The table below presents the IC50, Ki, and percent inhibition values for compounds tested in either washed human platelets membrane binding assay (assay #1 above) or recombinant cell membrane binding assay (Assay #3, above). Example number refers to the compound prepared as described in the example noted in the section Working Examples, above. The highest concentration of candidate compound tested is listed for each experimental run presented. […]

P2Y12 receptor, sequence (Q9H244 whole entry): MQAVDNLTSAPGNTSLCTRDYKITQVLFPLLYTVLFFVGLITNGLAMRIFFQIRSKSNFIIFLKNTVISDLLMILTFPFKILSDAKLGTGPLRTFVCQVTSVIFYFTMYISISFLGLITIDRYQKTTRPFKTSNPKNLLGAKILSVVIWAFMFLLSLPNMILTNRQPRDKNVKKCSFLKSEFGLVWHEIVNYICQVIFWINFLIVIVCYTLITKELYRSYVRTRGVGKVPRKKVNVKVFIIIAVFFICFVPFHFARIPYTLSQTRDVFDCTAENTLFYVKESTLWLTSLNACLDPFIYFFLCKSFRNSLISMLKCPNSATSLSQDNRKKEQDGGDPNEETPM

Compound | IC50 | Ki | % Inhibition (1 μM) | inhibition at 1 µM (1 μM) | % Inhibition (10 μM) | inhibition at 10 µM (10 μM)
CCc1cc2c(N3CCN(C(=O)c4ccc(-c5ccccc5)cc4)CC3)nc(Cl)nc2s1 [Example 21, 4-[4-(1,1′-Biphenyl-4-ylcarbonyl)piperazin-1-yl]-2-chloro-6-ethylthieno[2,3-d]pyrimidine] | 22 nM and 10 nM and 20 nM and 43 nM | 12 nM and 10 nM and 25 nM | 95.00% | 91.9% | 98.24% | 95.8%
CCc1cc2c(N3CCN(C(=O)c4cccc(OC)c4)CC3)nc(SCC(=O)OC)nc2s1 [Example 75, Methyl ({6-ethyl-4-[4-(3-methoxybenzoyl)piperazin-1-yl]thieno[2,3-d]pyrimidin-2-yl}thio)acetate] | 3500 nM | 2250 nM | – | – | – | 70.5%
CCc1cc2c(N3CCN(C(=O)c4cccc5ccccc45)CC3)nc(SCC(=O)OC)nc2s1 [Example 50, Methyl ({6-ethyl-4-[4-(1-naphthoyl)piperazin-1-yl]thieno[2,3-d]pyrimidin-2-yl}thio)acetate] | > 10000 nM | > 6700 nM | – | – | – | 40.3%
CCc1cc2c(N3CCN(C(=O)c4ccc(-c5ccccc5)cc4)CC3)nc(SCC(N)=O)nc2s1 [Example 31, 2-({4-[4-(1,1′-Biphenyl-4-ylcarbonyl)piperazin-1-yl]-6-ethylthieno[2,3-d]pyrimidin-2-yl}thio)acetamide] | 31 nM | 18 nM | – | – | – | 99.7%
CCc1cc2c(N3CCN(C(=O)Cc4ccccc4)CC3)nc(SCCCCO)nc2s1 [Example 84, 4-({6-ethyl-4-[4-(phenylacetyl)piperazin-1-yl]thieno[2,3-d]pyrimidin-2-yl}thio)butan-1-ol] | 580 nM and 1440 nM and 220 nM and 270 nM and 520 nM | 315 nM and 825 nM and 130 nM and 150 nM and 300 nM | – | – | 90.62% and 71.83% and 92.13% and 94.46% and 90.58% | –
CCc1cc2c(N3CCN(C(=O)c4ccc5ccccc5c4)CC3)nc(SCC(=O)OC)nc2s1 [Example 55, Methyl ({6-ethyl-4-[4-(2-naphthoyl)piperazin-1-yl]thieno[2,3-d]pyrimidin-2-yl}thio)acetate] | 1470 nM | 980 nM | – | – | – | 61.2%
CCc1cc2c(N3CCN(C(=O)Cc4ccccc4)CC3)nc(SCC(=O)NC)nc2s1 [Example 13, 2-({6-Ethyl-4-[4-(phenylacetyl)piperazin-1-yl]thieno[2,3-d]pyrimidin-2-yl}thio)-N-methylacetamide] | 280 nM and 530 nM | 160 nM and 310 nM | – | – | 88.77% | 88.2%
CCc1cc2c(N3CCN(C(=O)CCCC(=O)OC)CC3)nc(SCC(=O)OC)nc2s1 [Example 41, Methyl 5-(4-{6-ethyl-2-[(2-methoxy-2-oxoethyl)thio]thieno[2,3-d]pyrimidin-4-yl}piperazin-1-yl)-5-oxopentanoate] | 2570 nM | 1720 nM | – | – | – | 71.6%
C=CCSc1nc(N2CCN(C(=O)Cc3ccccc3)CC2)c2cc(CC)sc2n1 [Example 10, 2-(Allylthio)-6-ethyl-4-[4-(phenylacetyl)piperazin-1-yl]thieno[2,3-d]pyrimidine] | 990 nM and 550 nM | 570 nM and 330 nM | – | – | 79.53% | 82.3%
CCCCOc1ccc(C(=O)N2CCN(c3nc(SCC(=O)OC)nc4sc(CC)cc34)CC2)cc1 [Example 73, Methyl ({4-[4-(4-butoxybenzoyl)piperazin-1-yl]-6-ethylthieno[2,3-d]pyrimidin-2-yl}thio)acetate] | 371 nM | 230 nM | – | – | – | 82%
CCc1cc2c(N3CCN(C(=O)c4cccc(-c5ccccc5)c4)CC3)nc(SCC(=O)OC)nc2s1 [Example 78, Methyl ({4-[4-(1,1′-biphenyl-3-ylcarbonyl)piperazin-1-yl]-6-ethylthieno[2,3-d]pyrimidin-2-yl}thio)acetate] | 35 nM and 20 nM and 69 nM | 20 nM and 10 nM and 40 nM | – | 94% | 87.73% | 92.6%
CCc1cc2c(N3CCN(C(=O)c4ccc5c(c4)OCC5)CC3)nc(SCC(=O)OC)nc2s1 [Example 67, Methyl ({4-[4-(2,3-dihydro-1-benzofuran-6-ylcarbonyl)piperazin-1-yl]-6-ethylthieno[2,3-d]pyrimidin-2-yl}thio)acetate] | 1230 nM | 740 nM | – | – | – | 79.7%
CCc1cc2c(N3CCN(C(=O)Cc4ccccc4)CC3)nc(SCC(=O)OC)nc2s1 [Example 7, methyl ({6-ethyl-4-[4-(phenylacetyl)piperazin-1-yl]thieno[2,3-d]pyrimidin-2-yl}thio)acetate] | 1020 nM and 380 nM and 420 nM and 320 nM | 582 nM and 210 nM and 240 nM and 174 nM | – | – | 89.51% and 95.92% and 94.06% | 92.9%
CCOc1ccc(C(=O)N2CCN(c3nc(SCC(=O)OC)nc4sc(CC)cc34)CC2)cc1 [Example 57, Methyl ({4-[4-(4-ethoxybenzoyl)piperazin-1-yl]-6-ethylthieno[2,3-d]pyrimidin-2-yl}thio)acetate] | 1050 nM | 524 nM | – | – | – | 80.8%
C#CCCCCC(=O)N1CCN(c2nc(SCC(=O)OC)nc3sc(CC)cc23)CC1 [Example 36, Methyl {[6-ethyl-4-(4-hept-6-ynoylpiperazin-1-yl)thieno[2,3-d]pyrimidin-2-yl]thio}acetate] | 220 nM | 150 nM | – | – | – | 97.6%
CCc1cc2c(N3CCN(C(=O)Cc4ccccc4)CC3)nc(SCCC(=O)OC)nc2s1 [Example 82, methyl 3-({6-ethyl-4-[4-(phenylacetyl)piperazin-1-yl]thieno[2,3-d]pyrimidin-2-yl}thio)propanoate] | 390 nM and 1170 nM and 220 nM and 270 nM and 400 nM | 212 nM and 667 nM and 120 nM and 150 nM and 230 nM | – | – | 86.00% and 93.95% and 94.10% and 89.55% | 92.7%
C#CCCCC(=O)N1CCN(c2nc(SCC(=O)OC)nc3sc(CC)cc23)CC1 [Example 35, Methyl {[6-ethyl-4-(4-hex-5-ynoylpiperazin-1-yl)thieno[2,3-d]pyrimidin-2-yl]thio}acetate] | > 10000 nM | > 6700 nM | – | – | – | -4.55%
CCc1cc2c(N3CCN(C(=O)Cc4ccccc4)CC3)nc(SCCNC(C)=O)nc2s1 [Example 15, N-[2-({6-Ethyl-4-[4-(phenylacetyl)piperazin-1-yl]thieno[2,3-d]pyrimidin-2-yl}thio)ethyl]acetamide] | 300 nM | 170 nM | – | – | 92.26% | 87%
CCc1cc2c(N3CCN(C(=O)c4ccc5cc[nH]c5c4)CC3)nc(SCC(=O)OC)nc2s1 [Example 63, Methyl ({6-ethyl-4-[4-(1H-indol-6-ylcarbonyl)piperazin-1-yl]thieno[2,3-d]pyrimidin-2-yl}thio)acetate] | 1880 nM | 1130 nM | – | – | – | 68.1%
CCc1cc2c(N3CCN(C(=O)c4ccc5nccnc5c4)CC3)nc(SCC(=O)OC)nc2s1 [Example 77, Methyl ({6-ethyl-4-[4-(quinoxalin-6-ylcarbonyl)piperazin-1-yl]thieno[2,3-d]pyrimidin-2-yl}thio)acetate] | 4850 nM | 2810 nM | – | – | – | 63.4%
CCc1cc2c(N3CCN(C(=O)c4ccc(N(C)C)cc4)CC3)nc(SCC(=O)OC)nc2s1 [Example 54, Methyl [(4-{4-[4-(dimethylamino)benzoyl]piperazin-1-yl}-6-ethylthieno[2,3-d]pyrimidin-2-yl)thio]acetate] | 6190 nM and 4440 nM | 3560 nM and 2960 nM | – | – | 61.77% | 47.8%
